# Publication PMC4620497 (Scientific Reports, 2015)
# pIC50: −log10 of the molar value.
# How the values were obtained:
# AMPK-alpha1 = target: T1, AMPK-alpha1 (Homo sapiens, UniProt Q13131); assay: KINOMEscan panel screen; type: binding; conditions: read-out: Percent Control(%)
# T1 construct: purchased DiscoveRx KINOMEscan (Ambit Biosciences)
# BMPR1B = target: T2, BMPR1B (Homo sapiens, UniProt O00238); assay: KINOMEscan panel screen; type: binding; conditions: read-out: Percent Control(%)
# T2 construct: purchased DiscoveRx KINOMEscan (Ambit Biosciences)
# T2 sequence (O00238 14-502): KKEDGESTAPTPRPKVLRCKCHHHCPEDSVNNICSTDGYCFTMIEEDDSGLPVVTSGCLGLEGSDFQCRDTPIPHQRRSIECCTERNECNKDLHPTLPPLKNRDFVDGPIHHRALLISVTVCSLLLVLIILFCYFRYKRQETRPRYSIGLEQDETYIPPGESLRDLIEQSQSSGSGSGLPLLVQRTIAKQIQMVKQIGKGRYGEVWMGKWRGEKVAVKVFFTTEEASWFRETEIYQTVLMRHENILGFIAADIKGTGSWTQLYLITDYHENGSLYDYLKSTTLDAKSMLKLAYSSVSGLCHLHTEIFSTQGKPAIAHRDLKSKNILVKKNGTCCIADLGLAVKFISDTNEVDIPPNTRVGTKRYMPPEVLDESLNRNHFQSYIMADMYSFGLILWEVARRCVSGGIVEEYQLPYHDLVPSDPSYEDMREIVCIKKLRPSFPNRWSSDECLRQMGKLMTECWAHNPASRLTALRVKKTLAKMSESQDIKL
# DDR2 = target: T3, DDR2 (Homo sapiens, UniProt Q16832); assay: KINOMEscan panel screen; type: binding; conditions: read-out: Percent Control(%)
# T3 construct: purchased DiscoveRx KINOMEscan (Ambit Biosciences)
# T3 sequence (Q16832 22-855): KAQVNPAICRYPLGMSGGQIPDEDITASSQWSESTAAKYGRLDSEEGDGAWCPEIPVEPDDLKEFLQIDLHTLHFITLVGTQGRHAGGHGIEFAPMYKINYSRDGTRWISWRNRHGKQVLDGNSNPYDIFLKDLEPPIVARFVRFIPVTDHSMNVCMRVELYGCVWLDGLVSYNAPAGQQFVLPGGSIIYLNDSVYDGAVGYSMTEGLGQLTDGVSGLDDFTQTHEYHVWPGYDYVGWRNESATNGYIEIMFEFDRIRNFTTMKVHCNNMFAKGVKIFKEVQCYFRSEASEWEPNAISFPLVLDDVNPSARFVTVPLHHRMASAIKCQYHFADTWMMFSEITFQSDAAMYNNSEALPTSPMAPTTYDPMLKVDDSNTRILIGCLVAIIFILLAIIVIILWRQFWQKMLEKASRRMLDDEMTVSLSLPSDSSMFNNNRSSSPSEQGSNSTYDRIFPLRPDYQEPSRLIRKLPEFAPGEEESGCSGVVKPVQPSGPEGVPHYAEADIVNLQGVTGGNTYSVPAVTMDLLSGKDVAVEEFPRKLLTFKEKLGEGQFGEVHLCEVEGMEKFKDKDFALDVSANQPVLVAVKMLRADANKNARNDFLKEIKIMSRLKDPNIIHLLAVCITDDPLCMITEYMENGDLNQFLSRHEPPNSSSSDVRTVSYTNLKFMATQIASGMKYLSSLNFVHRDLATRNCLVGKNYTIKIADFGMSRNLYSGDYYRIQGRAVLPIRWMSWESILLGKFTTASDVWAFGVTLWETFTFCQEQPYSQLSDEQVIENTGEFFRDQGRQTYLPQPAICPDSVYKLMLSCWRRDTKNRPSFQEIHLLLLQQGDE
# EGFR = target: T4, EGFR (Homo sapiens, UniProt P00533); assay: KINOMEscan panel screen; type: binding; conditions: read-out: Percent Control(%)
# T4 construct: purchased DiscoveRx KINOMEscan (Ambit Biosciences)
# EGFR(E746-A750del) = target: T5, EGFR(E746-A750del) (Homo sapiens, UniProt P00533, DEL746-750); assay: KINOMEscan panel screen; type: binding; conditions: read-out: Percent Control(%)
# T5 construct: purchased DiscoveRx KINOMEscan (Ambit Biosciences)
# EGFR(L747-T751del,Sins) = assay: KINOMEscan panel screen; type: binding; conditions: 10 μM
# FGFR4 = target: T6, FGFR4 (Homo sapiens, UniProt P22455); assay: KINOMEscan panel screen; type: binding; conditions: read-out: Percent Control(%)
# T6 construct: purchased DiscoveRx KINOMEscan (Ambit Biosciences)
# FYN = target: T7, FYN (Homo sapiens, UniProt P06241); assay: KINOMEscan panel screen; type: binding; conditions: read-out: Percent Control(%)
# T7 construct: purchased DiscoveRx KINOMEscan (Ambit Biosciences)
# IGF1R = target: T8, IGF1R (Homo sapiens, UniProt P08069); assay: KINOMEscan panel screen; type: binding; conditions: read-out: Percent Control(%)
# T8 construct: DNA tag (qPCR read-out); purchased Ambit Biosciences (KINOMEscan service)
# IRAK1 = target: T9, IRAK1 (Homo sapiens, UniProt P51617); assay: KINOMEscan panel screen; type: binding; conditions: read-out: Percent Control(%)
# T9 construct: purchased DiscoveRx KINOMEscan (Ambit Biosciences)
# T9 sequence (P51617 whole entry): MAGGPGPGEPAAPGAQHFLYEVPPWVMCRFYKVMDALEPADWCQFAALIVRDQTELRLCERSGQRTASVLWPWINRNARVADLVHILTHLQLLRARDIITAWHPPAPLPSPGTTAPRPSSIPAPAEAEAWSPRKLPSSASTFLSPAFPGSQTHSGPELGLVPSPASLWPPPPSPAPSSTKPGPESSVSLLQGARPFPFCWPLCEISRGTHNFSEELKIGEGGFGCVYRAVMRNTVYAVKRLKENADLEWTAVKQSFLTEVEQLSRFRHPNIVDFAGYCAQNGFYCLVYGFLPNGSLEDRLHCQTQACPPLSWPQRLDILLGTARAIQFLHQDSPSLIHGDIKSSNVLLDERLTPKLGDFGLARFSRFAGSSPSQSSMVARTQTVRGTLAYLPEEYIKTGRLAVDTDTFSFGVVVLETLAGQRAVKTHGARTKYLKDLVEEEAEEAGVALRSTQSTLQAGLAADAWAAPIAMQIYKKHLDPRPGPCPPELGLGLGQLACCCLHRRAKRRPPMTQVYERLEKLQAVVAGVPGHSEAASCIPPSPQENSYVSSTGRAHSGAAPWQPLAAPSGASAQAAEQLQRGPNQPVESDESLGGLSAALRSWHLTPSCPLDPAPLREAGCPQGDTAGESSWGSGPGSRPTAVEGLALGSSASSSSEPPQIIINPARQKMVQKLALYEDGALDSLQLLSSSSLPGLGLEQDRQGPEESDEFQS
# [1] = target: T10, JAK1(JH1domain-catalytic) (Homo sapiens, UniProt P23458); assay: KINOMEscan panel screen; type: binding; conditions: read-out: Percent Control(%)
# T10 construct: JAK1(JH1domain-catalytic); purchased DiscoveRx KINOMEscan (Ambit Biosciences)
# KIT(V559D) = target: T11, KIT(V559D) (Homo sapiens, UniProt P10721, V559D); assay: KINOMEscan panel screen; type: binding; conditions: read-out: Percent Control(%)
# T11 construct: purchased DiscoveRx KINOMEscan (Ambit Biosciences)
# MARK3 = target: T12, MARK3 (Homo sapiens, UniProt P27448); assay: KINOMEscan panel screen; type: binding; conditions: read-out: Percent Control(%)
# T12 construct: purchased DiscoveRx KINOMEscan (Ambit Biosciences)
# PIK3CA(E545A) = target: T13, PIK3CA(E545A) (Homo sapiens, UniProt P42336, E545A); assay: KINOMEscan panel screen; type: binding; conditions: read-out: Percent Control(%)
# T13 construct: purchased DiscoveRx KINOMEscan (Ambit Biosciences)
# T13 sequence (P42336 whole entry E545A): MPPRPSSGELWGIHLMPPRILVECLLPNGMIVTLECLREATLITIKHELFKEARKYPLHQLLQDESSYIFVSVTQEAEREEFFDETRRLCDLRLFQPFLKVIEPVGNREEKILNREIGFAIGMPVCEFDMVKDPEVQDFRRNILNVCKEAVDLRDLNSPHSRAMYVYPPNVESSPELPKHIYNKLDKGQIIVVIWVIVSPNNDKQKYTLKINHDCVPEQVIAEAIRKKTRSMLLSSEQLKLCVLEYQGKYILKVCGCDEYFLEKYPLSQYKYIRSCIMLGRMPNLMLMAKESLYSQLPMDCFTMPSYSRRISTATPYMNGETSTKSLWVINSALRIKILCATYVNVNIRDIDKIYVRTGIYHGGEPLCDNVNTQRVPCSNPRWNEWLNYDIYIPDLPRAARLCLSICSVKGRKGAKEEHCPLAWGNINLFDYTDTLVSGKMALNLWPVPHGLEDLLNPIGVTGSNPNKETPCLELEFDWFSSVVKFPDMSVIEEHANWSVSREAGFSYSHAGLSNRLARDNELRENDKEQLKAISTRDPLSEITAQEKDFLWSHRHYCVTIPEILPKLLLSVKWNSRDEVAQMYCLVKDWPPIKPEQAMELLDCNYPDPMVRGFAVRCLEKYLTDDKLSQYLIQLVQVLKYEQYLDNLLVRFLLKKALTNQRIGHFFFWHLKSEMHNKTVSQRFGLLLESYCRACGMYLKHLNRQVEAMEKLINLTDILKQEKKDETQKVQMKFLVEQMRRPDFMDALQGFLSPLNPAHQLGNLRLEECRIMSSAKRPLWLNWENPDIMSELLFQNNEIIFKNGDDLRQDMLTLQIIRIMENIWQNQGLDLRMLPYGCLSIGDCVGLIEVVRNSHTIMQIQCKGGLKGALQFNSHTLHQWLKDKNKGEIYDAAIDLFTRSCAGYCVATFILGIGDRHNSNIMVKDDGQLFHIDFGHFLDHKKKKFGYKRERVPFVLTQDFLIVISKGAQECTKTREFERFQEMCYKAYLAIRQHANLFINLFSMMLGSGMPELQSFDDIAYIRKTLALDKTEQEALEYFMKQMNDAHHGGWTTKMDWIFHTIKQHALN
# PIK3CA(I800L) = target: T14, PIK3CA(I800L) (Homo sapiens, UniProt P42336, I800L); assay: KINOMEscan panel screen; type: binding; conditions: read-out: Percent Control(%)
# T14 construct: purchased DiscoveRx KINOMEscan (Ambit Biosciences)
# T14 sequence (P42336 whole entry I800L): as the sequence (P42336 whole entry E545A) above, with A545E, I800L counted along it
# PIM1 = target: T15, PIM1 (Homo sapiens, UniProt P11309); assay: KINOMEscan panel screen; type: binding; conditions: read-out: Percent Control(%)
# T15 construct: purchased DiscoveRx KINOMEscan (Ambit Biosciences)
# T15 sequence (P11309 whole entry): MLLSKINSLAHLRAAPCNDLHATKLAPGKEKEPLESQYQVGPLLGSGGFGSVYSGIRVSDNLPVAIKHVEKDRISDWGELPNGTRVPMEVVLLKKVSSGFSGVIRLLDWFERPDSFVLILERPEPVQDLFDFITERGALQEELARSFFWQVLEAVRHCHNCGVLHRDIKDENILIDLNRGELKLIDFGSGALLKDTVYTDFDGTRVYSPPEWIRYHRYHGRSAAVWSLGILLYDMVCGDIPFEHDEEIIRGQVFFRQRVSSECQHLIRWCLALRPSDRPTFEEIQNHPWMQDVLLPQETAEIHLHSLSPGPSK
# PLK1 = target: T16, PLK1 (Homo sapiens, UniProt P53350); assay: KINOMEscan panel screen; type: binding; conditions: read-out: Percent Control(%)
# T16 construct: purchased DiscoveRx KINOMEscan (Ambit Biosciences)
# PRKR = target: T17, PRKR (Homo sapiens, UniProt P19525); assay: KINOMEscan panel screen; type: binding; conditions: read-out: Percent Control(%)
# T17 construct: purchased DiscoveRx KINOMEscan (Ambit Biosciences)
# [2] = target: T18, RPS6KA4(Kin.Dom.1-N-terminal) (Homo sapiens, UniProt O75676); assay: KINOMEscan panel screen; type: binding; conditions: read-out: Percent Control(%)
# T18 construct: RPS6KA4(Kin.Dom.1-N-terminal); purchased DiscoveRx KINOMEscan (Ambit Biosciences)
# [3] = target: T19, RSK2(Kin.Dom.1-N-terminal) (Homo sapiens, UniProt P51812); assay: KINOMEscan panel screen; type: binding; conditions: read-out: Percent Control(%)
# T19 construct: RSK2(Kin.Dom.1-N-terminal); purchased DiscoveRx KINOMEscan (Ambit Biosciences)
# T19 sequence (P51812 68-327 limits assumed): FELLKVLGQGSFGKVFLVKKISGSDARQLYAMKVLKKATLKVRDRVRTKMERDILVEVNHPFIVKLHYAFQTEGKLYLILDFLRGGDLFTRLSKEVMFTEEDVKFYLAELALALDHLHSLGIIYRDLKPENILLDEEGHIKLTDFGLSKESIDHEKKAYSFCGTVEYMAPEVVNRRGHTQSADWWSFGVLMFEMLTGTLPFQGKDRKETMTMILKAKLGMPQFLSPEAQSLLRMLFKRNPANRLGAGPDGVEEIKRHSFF
# SGK2 = target: T20, SGK2 (Homo sapiens, UniProt Q9HBY8); assay: KINOMEscan panel screen; type: binding; conditions: read-out: Percent Control(%)
# T20 construct: purchased DiscoveRx KINOMEscan (Ambit Biosciences)
# SNRK = target: T21, SNRK (Homo sapiens, UniProt Q9NRH2); assay: KINOMEscan panel screen; type: binding; conditions: read-out: Percent Control(%)
# T21 construct: purchased DiscoveRx KINOMEscan (Ambit Biosciences)
# T21 sequence (Q9NRH2 whole entry): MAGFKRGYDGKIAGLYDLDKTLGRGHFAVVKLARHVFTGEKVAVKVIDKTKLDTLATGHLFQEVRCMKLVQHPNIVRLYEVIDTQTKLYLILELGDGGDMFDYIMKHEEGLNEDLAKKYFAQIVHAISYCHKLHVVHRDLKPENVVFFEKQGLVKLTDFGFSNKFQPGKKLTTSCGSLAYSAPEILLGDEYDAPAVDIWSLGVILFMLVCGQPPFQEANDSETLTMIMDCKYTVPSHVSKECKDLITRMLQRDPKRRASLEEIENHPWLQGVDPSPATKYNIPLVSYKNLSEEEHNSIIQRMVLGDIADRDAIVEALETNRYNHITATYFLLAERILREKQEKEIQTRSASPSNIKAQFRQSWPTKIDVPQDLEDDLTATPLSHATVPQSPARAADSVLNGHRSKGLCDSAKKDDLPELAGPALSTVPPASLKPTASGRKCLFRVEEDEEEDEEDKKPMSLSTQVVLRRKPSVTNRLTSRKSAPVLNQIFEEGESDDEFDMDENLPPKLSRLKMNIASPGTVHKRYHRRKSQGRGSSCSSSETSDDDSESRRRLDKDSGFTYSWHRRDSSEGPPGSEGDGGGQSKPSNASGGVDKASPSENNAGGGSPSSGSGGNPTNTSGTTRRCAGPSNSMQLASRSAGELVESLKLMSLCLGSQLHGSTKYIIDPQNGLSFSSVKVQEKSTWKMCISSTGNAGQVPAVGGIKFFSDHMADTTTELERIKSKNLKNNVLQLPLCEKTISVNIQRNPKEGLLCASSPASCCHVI
# TAOK1 = target: T22, TAOK1 (Homo sapiens, UniProt Q7L7X3); assay: KINOMEscan panel screen; type: binding; conditions: read-out: Percent Control(%)
# T22 construct: purchased DiscoveRx KINOMEscan (Ambit Biosciences)
# YANK2 = target: T23, YANK2 (Homo sapiens, UniProt Q9NY57); assay: KINOMEscan panel screen; type: binding; conditions: read-out: Percent Control(%)
# T23 construct: purchased DiscoveRx KINOMEscan (Ambit Biosciences)
# [4] = test system: MYC, CCND1, NKD1 transcripts in STF3a cells; assay: Real-time qPCR of β-catenin target genes in STF3a cells; type: cell-based; conditions: 24 h
# HepG2 = assay: MTT cell viability assay; conditions: Homo sapiens, HepG2, 72 h
# SW620 = assay: MTT cell viability assay; conditions: Homo sapiens, SW-620, 72 h
# MDA-MB-231 = assay: MTT cell viability assay; conditions: Homo sapiens, MDA-MB-231, 72 h
# T1 sequence (Q13131 whole entry): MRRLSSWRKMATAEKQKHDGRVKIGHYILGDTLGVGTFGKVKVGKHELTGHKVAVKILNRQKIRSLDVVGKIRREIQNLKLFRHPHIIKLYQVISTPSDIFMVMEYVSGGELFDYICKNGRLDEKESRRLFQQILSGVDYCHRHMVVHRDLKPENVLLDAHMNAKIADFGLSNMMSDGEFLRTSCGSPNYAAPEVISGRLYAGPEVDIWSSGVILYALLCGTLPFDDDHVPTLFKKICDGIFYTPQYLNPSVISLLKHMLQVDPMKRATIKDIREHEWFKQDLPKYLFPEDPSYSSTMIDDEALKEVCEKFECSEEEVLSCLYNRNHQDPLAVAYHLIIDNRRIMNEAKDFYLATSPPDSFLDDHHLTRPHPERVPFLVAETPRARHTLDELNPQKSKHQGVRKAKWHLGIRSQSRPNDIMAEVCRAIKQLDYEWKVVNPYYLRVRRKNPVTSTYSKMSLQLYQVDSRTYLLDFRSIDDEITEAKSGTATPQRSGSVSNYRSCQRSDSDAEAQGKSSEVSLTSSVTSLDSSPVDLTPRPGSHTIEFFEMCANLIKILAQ
compound,measurement,setting,value
"CC(C)(C)c1cc(NC(=O)Nc2ccc(Oc3ncnc4[nH]ncc34)c(F)c2)no1 [SKLB-677, 1-(4-(1H-pyrazolo[3,4-d]pyrimidin-4-yloxy)-3-fluorophenyl)-3-(5-tert-butylisoxazol-3-yl)urea]",remaining binding at 10 µM,AMPK-alpha1,3%
same,remaining binding at 10 µM,BMPR1B,88%
same,remaining binding at 10 µM,DDR2,61%
same,remaining binding at 10 µM,EGFR,29%
same,remaining binding at 10 µM,EGFR(E746-A750del),37%
same,Percent Control(%),"EGFR(L747-T751del,Sins)",61%
same,remaining binding at 10 µM,FGFR4,4.8%
same,remaining binding at 10 µM,FYN,15%
same,remaining binding at 10 µM,IGF1R,70%
same,remaining binding at 10 µM,IRAK1,2%
same,remaining binding at 10 µM,[1],12%
same,remaining binding at 10 µM,KIT(V559D),0%
same,remaining binding at 10 µM,MARK3,68%
same,remaining binding at 10 µM,PIK3CA(E545A),86%
same,remaining binding at 10 µM,PIK3CA(I800L),87%
same,remaining binding at 10 µM,PIM1,26%
same,remaining binding at 10 µM,PLK1,35%
same,remaining binding at 10 µM,PRKR,57%
same,remaining binding at 10 µM,[2],29%
same,remaining binding at 10 µM,[3],35%
same,remaining binding at 10 µM,SGK2,78%
same,remaining binding at 10 µM,SNRK,100%
same,remaining binding at 10 µM,TAOK1,3.2%
same,remaining binding at 10 µM,YANK2,50%
same,"MYC, CCND1, and NKD1 transcripts",[4],reduced
same,pIC50,HepG2,5.17
same,pIC50,SW620,< 5.00
same,pIC50,MDA-MB-231,< 5.00
